Assay results taken from patent US20230365585A1, “BENZODIAZEPINE DERIVATIVES USEFUL IN TREATING A RESPIRATORY SYNCYTIAL VIRUS INFECTION” (priority 2020, published 2023).

Tests used:
[1] = test system: RSV A2; assay: RSV plaque reduction assay; assay type: cell-based, RSV (RSV A2 ECACC, 0709161v); conditions: human respiratory syncytial virus, HepG2, 48 h, Hep-G2 cells, RSV A2, 2 days; mean of at least two experiments
Method: Compounds were subjected to RSV plaque reduction assays according to the following protocol.
Hep-G2 cells (ECACC, 85011430) were passaged in flasks and seeded in 24-well plates in DMEM containing antibiotics and supplemented with 10% FBS. During inoculation and subsequent incubation, cells were cultured in DMEM containing 2% FBS. 100 plaque forming unit/well of RSV (RSV A2 ECACC, 0709161v) was mixed with eight serial dilutions of compound. Subsequently, 100 µL of the virus/compound mixtures was added to confluent Hep-G2 cell monolayers. The cells and virus/compound mixtures were incubated at 37° C. in a humidified 5% CO2 incubator for 2 h prior to removal of the inoculum and addition of 1 mL of overlay (DMEM containing 2% FBS and 0.8% CMC) containing compound dilutions. The cells and were incubated at 37° C. in a humidified 5% CO2 incubator for 2 days.
Cells were washed with PBS before adding 75%/25% v/v EtOH/MeOH, for 3 min. Fix ative was removed and plates were washed with PBS. A pre-titrated amount of the primary antibody was added in 200 µL PBS/2% milk powder, and plates incubated for 90 min at 37° C. The plates were washed 3 times with PBS/0.05% Tween20 before addition of rabbit anti-goat horse radish peroxidase in 200 µL PBS/2% milk powder, and incubated for 1 h at 37° C. Following three wash steps with PBS/0.05% Tween20, 200 µL ready-to-use TrueBlue was added and plates were incubated at rt for 10-15 min before washing with water. After removal of water, plates were air-dried in the dark.
(§1) Plates were scanned and analysed using the Immunospot S6 Macro analyser, which is equipped with BioSpot analysis software for counting immunostained plaques (virospots). Plaque counts were used to calculate % infection relative to the mean of the plaque count in the virus control wells for RSV. […] Plaque EC50 and cell toxicity CC50 values are a mean of at least two experiments and figures are rounded to whole units.

[2] = Cell cytotoxicity CC50; assay type: cell-based; conditions: human; mean of at least two experiments
Excerpt: as §1

Row | SMILES | EC50 [1] [nM] | CC50 [2] [nM]
1 | CCc1ccc(-c2nn3c(c2C(=O)N[C@H]2N=C(c4ccccc4)c4cccc(F)c4NC2=O)O[C@H]2CC[C@@H]3C2)cn1 (single isomer, unassigned) [Example 30-2, (1R*,8S*)-4-(6-ethylpyridin-3-yl)-N-[(3S)-9-fluoro-2-oxo-5-phenyl-2,3-dihydro-1H-1,4-benzodiazepin-3-yl]-7-oxa-2,3-diazatricyclo[6.2.1.02,6]undeca-3,5-diene-5-carboxamide] | 63 | > 25000
2 | CC(C)Nc1ccc(-c2nn3c(c2C(=O)N[C@H]2N=C(c4ccccc4)c4cccc(F)c4NC2=O)O[C@@H]2CC[C@H]3C2)cn1 (single isomer, unassigned) [Example 31-1, (1S*,8R*)-N-[(3S)-9-fluoro-2-oxo-5-phenyl-2,3-dihydro-1H-1,4-benzodiazepin-3-yl]-4-{6-[(propan-2-yl)amino]pyridin-3-yl}-7-oxa-2,3-diazatricyclo[6.2.1.02,6]undeca-3,5-diene-5-carboxamide] | 63 | > 25000
3 | CC(C)Nc1ccc(-c2nn3c(c2C(=O)N[C@H]2N=C(c4ccccc4)c4cccc(F)c4NC2=O)O[C@H]2CC[C@@H]3C2)cn1 (single isomer, unassigned) [Example 31-2, (1R*,8S*)-N-[(3S)-9-fluoro-2-oxo-5-phenyl-2,3-dihydro-1H-1,4-benzodiazepin-3-yl]-4-{6-[(propan-2-yl)amino]pyridin-3-yl}-7-oxa-2,3-diazatricyclo[6.2.1.02,6]undeca-3,5-diene-5-carboxamide] | 94 | > 25000
4 | O=C(NC1N=C(c2ccccc2)c2cccc(F)c2NC1=O)c1c(-c2ccccc2F)nn2c1OCC(N1CCOCC1)CC2 (stereo in doubt) [Example 29, 2-(2-Fluorophenyl)-6-morpholin-4-yl-N-[(3R)-9-fluoro-2-oxo-5-phenyl-1,3-dihydro-1,4-benzodiazepin-3-yl]-5,6,7,8-tetrahydropyrazolo[5,1-b][1,3]oxazepine-3-carboxamide] | 154 | > 25000
5 | O=C(N[C@H]1N=C(c2ccccc2)c2ccccc2NC1=O)c1c(-c2ccccc2)nn2c1OCCCC2 [Example 1, N-[(3S)-2-oxo-5-phenyl-1,3-dihydro-1,4-benzodiazepin-3-yl]-2-phenyl-5,6,7,8-tetrahydropyrazolo[5,1-b][1,3]oxazepine-3-carboxamide] | 79 | > 25000
6 | Cc1cncc(-c2nn3c(c2C(=O)N[C@H]2N=C(c4ccccc4)c4ccccc4NC2=O)OCCCC3)c1 [Example 3, 2-(5-Methylpyridin-3-yl)-N-[(3S)-2-oxo-5-phenyl-1,3-dihydro-1,4-benzodiazepin-3-yl]-5,6,7,8-tetrahydropyrazolo[5,1-b][1,3]oxazepine-3-carboxamide] | 256 | > 25000
7 | Cc1cncc(-c2nn3c(c2C(=O)N[C@H]2N=C(c4ccccc4)c4cccc(F)c4NC2=O)OCCCC3)c1 [Example 4, N-[(3S)-9-Fluoro-2-oxo-5-phenyl-1,3-dihydro-1,4-benzodiazepin-3-yl]-2-(5-methylpyridin-3-yl)-5,6,7,8-tetrahydropyrazolo[5,1-b][1,3]oxazepine-3-carboxamide] | 219 | > 25000
8 | CC1(C)CCCn2nc(-c3ccccc3F)c(C(=O)N[C@H]3N=C(c4ccccc4)c4ccccc4NC3=O)c2O1 [Example 5, 2-(2-Fluorophenyl)-5,5-dimethyl-N-[(3S)-2-oxo-5-phenyl-1,3-dihydro-1,4-benzodiazepin-3-yl]-7,8-dihydro-6H-pyrazolo[5,1-b][1,3]oxazepine-3-carboxamide] | 91 | > 25000
9 | CC1(C)CCCn2nc(-c3ccccc3F)c(C(=O)N[C@H]3N=C(c4ccccc4)c4cccc(F)c4NC3=O)c2O1 [Example 6, N-[(3S)-9-Fluoro-2-oxo-5-phenyl-1,3-dihydro-1,4-benzodiazepin-3-yl]-2-(2-fluorophenyl)-5,5-dimethyl-7,8-dihydro-6H-pyrazolo[5,1-b][1,3]oxazepine-3-carboxamide] | 78 | > 25000
10 | O=C(N[C@H]1N=C(c2ccccc2)c2ccccc2NC1=O)c1c(-c2ccccc2F)nn2c1OCCCC2 [Example 7, 2-(2-Fluorophenyl)-N-[(3S)-2-oxo-5-phenyl-1,3-dihydro-1,4-benzodiazepin-3-yl]-5,6,7,8-tetrahydropyrazolo[5,1-b][1,3]oxazepine-3-carboxamide] | 52 | > 25000
11 | O=C(N[C@H]1N=C(c2ccccc2)c2cccc(F)c2NC1=O)c1c(-c2ccccc2)nn2c1OCCCC2 [Example 8, N-[(3S)-9-Fluoro-2-oxo-5-phenyl-1,3-dihydro-1,4-benzodiazepin-3-yl]-2-phenyl-5,6,7,8-tetrahydropyrazolo[5,1-b][1,3]oxazepine-3-carboxamide] | 59 | > 16700
12 | O=C(N[C@H]1N=C(c2ccccc2)c2ccccc2NC1=O)c1c(-c2ccc(NC3CC3)nc2F)nn2c1OCCCC2 [Example 9, 2-[6-(Cyclopropylamino)-2-fluoropyridin-3-yl]-N-[(3S)-2-oxo-5-phenyl-1,3-dihydro-1,4-benzodiazepin-3-yl]-5,6,7,8-tetrahydropyrazolo[5,1-b][1,3]oxazepine-3-carboxamide] | 24 | > 25000
13 | CCNc1ccc(-c2nn3c(c2C(=O)N[C@H]2N=C(c4ccccc4)c4ccccc4NC2=O)OC(C)CCC3)c(F)n1 (stereo partly drawn) [Example 10, 2-[6-(Ethylamino)-2-fluoropyridin-3-yl]-5-methyl-N-[(3S)-2-oxo-5-phenyl-1,3-dihydro-1,4-benzodiazepin-3-yl]-5,6,7,8-tetrahydropyrazolo[5,1-b][1,3]oxazepine-3-carboxamide] | 31 | > 25000
14 | CCNc1ccc(-c2nn3c(c2C(=O)N[C@H]2N=C(c4ccccc4)c4cccc(F)c4NC2=O)OC(C)CCC3)c(F)n1 (stereo partly drawn) [Example 11, 2-[6-(Ethylamino)-2-fluoropyridin-3-yl]-N-[(3S)-9-fluoro-2-oxo-5-phenyl-1,3-dihydro-1,4-benzodiazepin-3-yl]-5-methyl-5,6,7,8-tetrahydropyrazolo[5,1-b][1,3]oxazepine-3-carboxamide] | 18 | > 25000
15 | CC(C)Nc1ccc(-c2nn3c(c2C(=O)N[C@H]2N=C(c4ccccc4)c4ccccc4NC2=O)OC(C)CCC3)c(F)n1 (stereo partly drawn) [Example 12, 2-[2-Fluoro-6-(propan-2-ylamino)pyridin-3-yl]-5-methyl-N-[(3S)-2-oxo-5-phenyl-1,3-dihydro-1,4-benzodiazepin-3-yl]-5,6,7,8-tetrahydropyrazolo[5,1-b][1,3]oxazepine-3-carboxamide] | 34 | > 25000
16 | CC(C)Nc1ccc(-c2nn3c(c2C(=O)N[C@H]2N=C(c4ccccc4)c4cccc(F)c4NC2=O)OC(C)CCC3)c(F)n1 (stereo partly drawn) [Example 13, N-[(3S)-9-fluoro-2-oxo-5-phenyl-1,3-dihydro-1,4-benzodiazepin-3-yl]-2-[2-fluoro-6-(propan-2-ylamino)pyridin-3-yl]-5-methyl-5,6,7,8-tetrahydropyrazolo[5,1-b][1,3]oxazepine-3-carboxamide] | 34 | > 25000
17 | CC1CCCOc2c(C(=O)N[C@H]3N=C(c4ccccc4)c4ccccc4NC3=O)c(-c3ccccc3F)nn21 (stereo partly drawn) [Example 14, 2-(2-Fluorophenyl)-8-methyl-N-[(3S)-2-oxo-5-phenyl-1,3-dihydro-1,4-benzodiazepin-3-yl]-5,6,7,8-tetrahydropyrazolo[5,1-b][1,3]oxazepine-3-carboxamide] | 67 | > 25000
